Test: Gastric model: incubation in simulated gastric fluid (SGF), LOOH (FOX assay) and MDA, oxidation resistance score
Assay type: physicochemical
Conditions: conventional krill oil with high TMAO, three concentrations of Astaxanthin (increased more than 10 fold), 180 minutes
Description: Hydroperoxide level was tested by FOX analysis. Measurements were conducted at 562 nm, the absorbance of the Ferric-Xylenol Orange Complex. (Gay 1999).
Malondialdehyde (MDA) level was tested by modified TBARS test. The thiobarbituric acid-MDA adduct was quantified by HPLC (Fenaille 2001) or spectrophotometer.
Marine lecithin preparations according to the invention and conventional marine lecithins were incubated while shaken in simulated gastric fluid (SGF) which contains 2 mg/ml NaCl, 3.2 mg/ml HCl 37%, and 7 mg/ml Pepsine and with 200 μM Ascorbic acid and 50 μM FeCl3 as oxidation catalysts, at 37° C. for 180 min. The final concentration of the oils was 10 mg/ml. Peroxidation markers hydroperoxide (LOOH, by Ferric-Xylenol Orange Complex—FOX assay) and malondialdehyde (MDA-TBA2 HPLC analysis) were analyzed following 180 minutes of incubation in the gastric model.
In order to rank the oils according to their resistance to oxidation in gastric model, a score scale was developed. […]
Conventional krill oil, containing high concentration of TMAO, was enriched with three concentrations of Astaxanthin and incubated in simulated gastric fluid (SGF) as described in Example 3. Hydroperoxide as peroxidation marker (LOOH, by Ferric-Xylenol Orange Complex—FOX assay—see method above) was analyzed following 180 minutes. […]

## CC1=C(/C=C/C(C)=C/C=C/C(C)=C/C=C/C=C(C)/C=C/C=C(C)/C=C/C2=C(C)C(=O)[C@@H](O)CC2(C)C)C(C)(C)C[C@H](O)C1=O [Astaxanthin]
  change in LOOH levels by Astaxanthin enrichment: only minimal change in LOOH levels

From patent US20180125898A1, “MARINE LECITHIN PREPARATIONS WITH ENHANCED OXIDATION RESISTANCE” (AKER BIOMARINE ANTARCTIC AS, priority 2014, published 2018)
